# Entries after “also recorded” stand apart in the source; their conditions may differ.
# What was measured:
# HIF-1α and HIF-2α = test: HIF accumulation in hypoxic D120 hiPSC-derived retinal organoids; assay type: cell-based, human; conditions: 1% O2, 12 hours
# Procedure: To assess the therapeutic potential of 32-134D for diabetic patients, human induced pluripotent stem cell (hiPSC)-derived 3-dimensional (3D) retinal organoids were treated with 32-134D. It has been previously reported that hiPSC-derived 3D retinal organoids cultured under hypoxic conditions (1% O2) behave similar to ischemic human retinal tissue with increased accumulation of both HIF-1α and HIF-2α (J. Zhang et al., J Clin Invest 131 (2021)). By 120 days of differentiation (D120), the inner and outer retinal layers are clearly defined (FIGS. 32A and 32B) and contain the precursors of the major retinal cell types, including outer retina photoreceptors (expressing recoverin), few newly differentiating bipolar cell precursors (lacking expression of recoverin and Pax6), amacrine cells (expressing high levels of Pax6), as well as Müller cells (expressing CRALBP; FIGS. 32C and 32D).
# Retinal organoids: An hiPSC line derived from CD34+ cord blood was used in this study (A18945, ThermoFisher Scientific) (P. W. Burridge et al., 2011, PLoS One 6, e18293). Undifferentiated hiPSCs and derived retinal organoids were routinely tested for Mycoplasma contamination by PCR. Cell culture, retinal differentiation, and organoid formation were conducted as previously described (X. Zhong et al., 2014, Nat Commun 5, 4047). Retinal organoids at 120 days of differentiation were used for experiments. […]
# OIR mice = test: OIR mouse model, intraocular dosing; assay type: in vivo
# Procedure: (§1) The efficacy of 32-134D following intraocular administration with 70 ng, as well as a lower dose (14 ng), in OIR mice at P12 (J. Zhang et al., J Clin Invest 131 (2021)) was determined.
# The efficacy of 32-134D following IVT administration was also evaluated in the OIR model. At P14, pups were treated with a single intravitreal injection with 32-134D (14 or 70 ng) in 1 ul or with vehicle (DMSO) control. At P17, retinal flat mounts were stained with isolectin-B4 to examine the development of retinal neovascularization.
# (§2) Intraocular injections: Intravitreal injections were performed with a PLI-100A Pico-liter Microinjector (Warner Instruments, Harvard Bioscience) using pulled-glass micropipettes. Each micropipette was calibrated to deliver a 1 μl volume on depression of a foot switch. The mice were anesthetized with a ketamine (100 mg/kg) and xylazine (5 mg/kg) mixture, and under a dissecting microscope, the sharpened tip of the micropipette was passed through the sclera just posterior to the limbus into the vitreous cavity and the foot switch was depressed, which caused fluid to penetrate into the vitreous space. Test compound was injected into the vitreous cavity in OIR and STZ mice for vascular permeability test, retinal vasculature and lysates for WB and qPCR analysis.
# OIR mouse model: OIR experiments were performed as previously described (M. Rodrigues et al., 2013, Diabetes 62, 3863-3873). Briefly, C57BL/6 mice were placed in 75% O2 on P7. On P12, the mice were returned to room air and administered either by IP injection (digoxin and test compound) or by intravitreal injection. Mice with body weight less than 6 g at P17 were excluded from analysis. The data were collected from both males and females and the results combined, as there was no apparent difference between sexes. Representative images for selected time points from a minimum of three independent experiments are shown. Data from 3-8 pups were obtained at each time point.
# STZ mice = test: STZ diabetic mouse model, intraocular dosing; assay type: in vivo; conditions: single intraocular injection 70 ng, 5 days
# Procedure: as §1
# The efficacy of 32-134D following IVT administration was also evaluated in the STZ model. STZ mice that were hyperglycemic for 6 months were treated with a single intraocular injection with 70 ng 32-134D in 1 ul or with vehicle (DMSO) control. 5 days later vascular hyperpermeability was assessed by examining leakage of intravascular Evans blue dye in STZ mice.
# Vascular permeability by Evans blue tracer method: Mice were anesthetized with a mixture of ketamine (50 mg/kg) and xylazine (5 mg/kg) and subjected to Evans blue (Sigma) (50 mg/kg) perfusion by penile vein injection. […] Images were captured by Zeiss fluorescent microscope or confocal microscopy and fluorescence quantified by image J software (NIH). […] Blinded quantification of the number of leaking vessels was performed by manual counting major leakage from capillaries from retinas of each group. Non-capillary artifactual Evans blue or FITC-dextran leakage due to flat mount processing as well as minor leakages were not included in the quantitation. […] Random fields were chosen from retinas where leakages were absent to determine baseline fluorescence that arise from capillaries. For quantification, high magnifications (20×) images were taken. […]
# C57BL/6 mice = test: Laser CNV model, intravitreal dosing; assay type: in vivo, mouse; conditions: single IVT injection 70 ng on day 3, day 7
# Procedure: To evaluate the efficacy of 32-134D following intraocular administration, the laser CNV model for neovascular (wet) age-related macular degeneration was used (FIG. 25A). C57BL/6 mice were treated with laser on day 0. On day 3, mice were treated with a single IVT injection with 32-134D (1 μl of 14 or 70 ng/μl solution) or with vehicle control. On day 7, mice were euthanized and choroidal flat mounts were stained with isolectin B4 to examine the area of CNV.
# as §2
smiles,measurement,setting,value
"Brc1ccc2c(-c3csc(-c4c[nH]c5c(Br)cccc45)n3)c[nH]c2c1 [Compound 32-134D, 4-(6-bromo-1H-indol-3-yl)-2-(7-bromo-1H-indol-3-yl)thiazole]",accumulation of HIF-1α and HIF-2α protein,HIF-1α and HIF-2α,effectively prevented
same,HIF-1α and HIF-2α protein accumulation in retina,"OIR mice; single 14-ng intraocular injection, P13 and P14",marked reduction
same,"expression of mRNAs encoding VEGF, KDR and other HIF-regulated angiogenic mediators","OIR mice; single intraocular injection at P12, P17",decreased expression
same,retinal neovascularization,"OIR mice; single intravitreal injection 14 or 70 ng at P14, P17",significant decrease
same,vascular hyperpermeability (Evans blue leakage),STZ mice,effectively inhibited; also recorded: significant decrease
same,CNV area,C57BL/6 mice,significant decrease
